# Data as given in paper PMC10541411 (Nature Communications, 2023).
# Assays:
# [1] = system: 53BP1^FFR-PN IRIF in U2OS cells; assay: 53BP1FFR ionizing radiation-induced foci (IRIF) formation, immunofluorescence, PN mutant; type: cell-based, Homo Sapiens; settings: 1 Gy X-ray, different concentrations of UNC3474
# From the text: The foci-forming region (FFR; residues 1220–1711) of wild-type 53BP1 and mutants E1549P/D1550N (53BP1^FFR-PN) and E1549C/E1567C (53BP1^FFR-CC) were inserted into the retroviral vector POZ. The primers used to introduce the E1549P/D1550N mutations are: […] (forward) and […] (reverse). The primers used to introduce the E1549C/E1567C mutations are: […] (forward) and […] (reverse). The 53BP1^FFR constructs were stably expressed at a moderate level in U2OS cells. To probe the effect of UNC3474 on 53BP1^FFR IRIF formation, U2OS cells were grown on glass coverslips, pre-incubated for 1 h with various concentrations of UNC3474 and exposed to 1 Gy of X-ray radiation. After 1 h, the cells were fixed in 4% formaldehyde in PBS for 15 min at room temperature and blocked and permeabilized for 1 h in PBS containing 0.3% Triton X-100, 1% BSA, 10% fetal bovine serum. […]
# Cell samples were subjected to z-stack scanning with a total depth of 5 μm to comprehensively capture all 53BP1^FFR and γH2A.X IRIF within the cell nuclei, which were fluorescently labeled with DAPI. […] To assess the quantification of 53BP1^FFR and γH2A.X foci per nuclei, a customized CellProfiler (version 3.0)[68] pipeline was employed. […]
# [2] = target: T1, 53BP1^TT-PN (E1549P/D1550N) (Homo sapiens, UniProt Q12888, D1550N/E1549P); assay: 1H-15N HSQC NMR titration of 15N-labeled 53BP1TT-PN; type: binding; settings: up to fourfold molar excess
# T1 construct: The tandem Tudor domain of 53BP1 (53BP1^TT, residues 1481–1603) was purified as previously described; made in house
# Procedure: All NMR data were collected at 25 °C on a 700 MHz Bruker Avance III spectrometer equipped with a cryoprobe. Data were processed and analyzed with NMRPipe[54] and NMRViewJ[55],[56].
# To probe chemical shift perturbations, ^1H-^15N HSQC spectra were acquired on the following samples: 0.2 mM ^15N-labeled 53BP1^TT WT and 53BP1^TT-PN in 25 mM sodium phosphate, pH 7.0, 1.5 mM NaN3, 0.3 mM DSS, 90% H2O/10% D2O, free and incrementally titrated with various non-labeled inhibitors (UNC1078, UNC1118, UNC2170, UNC2991, UNC3474), as well as with H4KC20me2 and p53K382me2 peptides. Chemical shift perturbations (Δδ) were calculated using the Eq. (1):1 Δδ=(ΔN/5)^2+ΔH^2 where ΔN and ΔH are the corresponding differences in ^15N and ^1H chemical shifts between the bound and free forms of 53BP1.
# [3] = target: T2, 53BP1^TT (Homo sapiens, UniProt Q12888); assay: NMR 15N relaxation measurements (R1, R2, NOE); settings: 1 mM 15N-labeled 53BP1TT, saturating amounts of small molecule
# T2 construct: The tandem Tudor domain of 53BP1 (53BP1^TT, residues 1481–1603) was purified as previously described; made in house; host or cells: E. coli (only for the SAXS sample)
# Procedure: The NMR relaxation measurements were carried out with 1 mM ^15N-labeled 53BP1^TT, 53BP1^TT-PN, and 53BP1^TT in the presence of saturating amounts of UNC3474 and UNC1118 in 25 mM sodium phosphate, pH 7.0, 100 mM NaCl, 1.5 mM NaN3, 0.3 mM DSS, 90% H2O/10% D2O, using standard experiments[58],[59]. The longitudinal and transverse ^15N relaxation rates R1 and R2 were determined using 12 and 14 relaxation delay times of 0.1–2 s and 4–120 ms, respectively. The first data point of each set of measurements was repeated for error assessment. The ^15N-{^1H} nuclear Overhauser ratios were obtained from a reference experiment without proton irradiation and a steady-state experiment with proton irradiation for 3 s.
# T2 sequence (Q12888 1481-1603): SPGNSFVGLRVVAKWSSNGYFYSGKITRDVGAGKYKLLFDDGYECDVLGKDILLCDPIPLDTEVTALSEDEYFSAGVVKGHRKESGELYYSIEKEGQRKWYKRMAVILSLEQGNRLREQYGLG
# T1 sequence (Q12888 1481-1603 E1549P/D1550N): as the sequence (Q12888 1481-1603) above, with E69P, D70N counted along it
structure (smiles),measurement,setting,value
CC(C)c1cccc(C(=O)NCCCNC(C)(C)C)c1 [UNC3474],53BP1FFR-PN IRIF,[1],no significant change
same,interaction with 53BP1TT-PN (1H-15N HSQC titration),[2],did not interact
same,effect on 15N relaxation rates of 53BP1TT,[3],increase in R2 relaxation rates
